Assay results from patent publication US9012500B2, “PKC-ε activator” (Nishizaki Bioinformation Research Institute, priority 2010, dated 2015).

What was measured:
[1] = system: PKC activity of rat PC-12 cells; experiment: Intracellular PKC assay in PC-12 cells; format: cell-based
Method: According to the method described in a publication [Kanno T et al., J Lipid Res 47 (6):1146-1156, 2006], the PKC activity of rat PC-12 cells was assayed. The cells were treated with each DCP-LA optical isomer at 37° C. for 10 min. The treatment was performed in an extracellular solution [137 mM NaCl, 5.4 mM KCl, 10 mM MgCl2, 5 mM ethyleneglycol-bis(2-aminoethylether)-N,N,N′,N′-tetraacetic acid (EGTA), 0.3 mM Na2HPO4, 0.4 mM K2HPO4 and 20 mM 4-(2-hydroxyethyl)-1-piperazin-ethanesulfonic acid, pH 7.2]. Then, the cells were rinsed with 100 μl of phosphate-buffered saline (PBS) in the absence of Ca^2+, and incubated in an extracellular solution (50 μl) containing 50 μg/ml digitonin, 25 mM glycerol 2-phosphate, 200 μM ATP and 100 μM synthetic PKC substrate peptide (Pyr-Lys-Arg-Pro-Ser-Gln-Arg-Ser-Lys-Tyr-Leu (SEQ ID NO: 1); MW, 1,374; Pyr: […]) at 37° C. for 15 min. […] A substrate peptide peak and a new resultant product peak were detected at the absorbance of 214 nm (SPD-10Avp UV-VIS detector, Shimadzu Co., Kyoto, Japan). […] The molecular weight was calculated from the two standard spectra of bradykinin (MW 1060.2) and substance P (MW 1672.9).
The areas of the non-phosphorylated and phosphorylated substrate peptides were measured (total area corresponds to the concentration of PKC substrate peptide used). […]

[2] = target: T1, PKC-ε (Homo sapiens, UniProt Q02156); experiment: PKC assay in cell-free system with PKC isozymes; format: biochemical
T1 sequence (Q02156 1-737): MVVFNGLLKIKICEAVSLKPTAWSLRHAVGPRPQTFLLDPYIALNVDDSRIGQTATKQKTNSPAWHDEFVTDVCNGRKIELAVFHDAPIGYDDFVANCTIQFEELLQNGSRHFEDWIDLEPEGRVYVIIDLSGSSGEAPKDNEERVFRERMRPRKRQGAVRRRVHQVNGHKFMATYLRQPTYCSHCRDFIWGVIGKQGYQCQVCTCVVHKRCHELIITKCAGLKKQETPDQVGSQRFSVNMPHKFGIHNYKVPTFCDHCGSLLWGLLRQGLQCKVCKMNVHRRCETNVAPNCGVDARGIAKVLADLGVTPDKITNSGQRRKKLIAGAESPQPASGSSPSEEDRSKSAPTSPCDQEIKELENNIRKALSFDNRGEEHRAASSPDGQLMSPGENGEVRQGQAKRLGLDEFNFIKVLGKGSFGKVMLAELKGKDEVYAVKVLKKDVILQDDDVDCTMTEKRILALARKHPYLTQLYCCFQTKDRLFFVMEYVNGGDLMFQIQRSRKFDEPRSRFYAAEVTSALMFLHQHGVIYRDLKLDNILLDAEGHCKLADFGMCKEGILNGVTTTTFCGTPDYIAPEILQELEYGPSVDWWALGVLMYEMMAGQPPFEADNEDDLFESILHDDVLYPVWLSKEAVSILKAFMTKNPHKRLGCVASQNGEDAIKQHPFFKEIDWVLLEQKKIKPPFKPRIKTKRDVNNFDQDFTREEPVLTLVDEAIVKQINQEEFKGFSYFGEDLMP
Method: The PKC activity in a cell-free system was quantified by the method described in a publication [Kanno T et al., J Lipid Res 47 (6):1146-1156, 2006]. The summary is as described below.
Synthetic PKC substrate peptide (10 μM) was reacted with various PKC isozymes in a medium containing 20 mM Tris-HCl (pH 7.5), 5 mM Mg-acetate, 10 μM ATP and each DCP-LA optical isomer (10 μM) in the absence of phosphatidylserine and diacylglycerol at 30° C. for 5 min. When the activity with new types of PKC (PKC-δ, -ε, -η and -μ) was to be measured, a medium free of Ca^2+ was used and when the activity with other PKC isozyme was to be measured, a medium containing 100 μM Ca^2+ was used. After loading on reversed-phase HPLC (LC-10ATvp, Shimadzu Co., Kyoto, Japan), a substrate peptide peak and a new resultant product peak were detected at the absorbance of 214 nm. The areas of the non-phosphorylated and phosphorylated substrate peptides m were measured (total area corresponds to the concentration of PKC substrate peptide used), and the amount of phosphorylated substrate peptide was calculated. The phosphorylated substrate peptide level (pmol/l min) was used as an index of PKC activity.

[3] = system: glutamic acid release from the hippocampus; experiment: Glutamic acid release from rat hippocampus sections (HPLC); format: cell-based
[4] = system: dopamine release from the striatum; experiment: Dopamine release from rat striatum sections (HPLC); format: cell-based
[5] = system: serotonin release from the hypothalamus; experiment: Serotonin release from rat hypothalamus sections (HPLC); format: cell-based

## CCCCC[C@@H]1C[C@@H]1C[C@@H]1C[C@H]1CCCCCCCC(=O)O [α,β-DCP-LA, 8-[(1R,2S)-2-{(1R,2R)-2-pentylcyclopropylmethyl}-cyclopropyl]octanoic acid]
[1]; 100 nM, 37° C., 10 min, FIG. 1
  PKC activation action on PC-12 cells compared to the other optical isomers: most strongly
[1]; PC-12 cells, FIG. 2
  concentration at which the PKC activation action reaches maximum (bell-shaped): about 100 nM
[2]; 10 μM, absence of phosphatidylserine and diacylglycerol, FIG. 4
  activation of PKC isozymes in cell-free system (selectivity): selective and direct activation of PKC-ε
[2]; cell-free system, 10 μM, FIG. 6
  PKC-ε activation action compared to the other optical isomers: highest ability
[2]; cell-free system, FIG. 5
  concentration at which the PKC activation action reaches maximum (bell-shaped): about 25 μM
[3]; 100 nM, in the presence of nicotine (1 μM), FIG. 7
  glutamic acid release stimulation action compared to the other optical isomers: remarkably high
[3]; rat hippocampus sections, FIG. 8
  concentration at which glutamic acid release stimulation action reaches maximum (bell-shaped): about 100 nM
[3]; treated alone, FIG. 9
  glutamic acid release, substance alone vs non-treated group: did not show a remarkable difference
[3]; with nicotine (1 μM), FIG. 9
  effect on glutamic acid release caused by nicotine: remarkably enhanced
[4]; 100 nM, in the presence of nicotine (1 μM), FIG. 10
  dopamine release stimulation action compared to the other optical isomers: remarkably high
[4]; rat striatum sections, FIG. 11
  concentration at which dopamine release stimulation action reaches maximum (bell-shaped): about 250 nM
[4]; treated alone, FIG. 12
  dopamine release, substance alone vs non-treated group: did not show a remarkable difference
[4]; with nicotine (1 μM), FIG. 12
  effect on dopamine release caused by nicotine: remarkably enhanced
[5]; 100 nM, in the presence of nicotine (1 μM), FIG. 13
  serotonin release stimulation action compared to the other optical isomers: remarkably high
[5]; rat hypothalamus sections, FIG. 14
  concentration at which serotonin release stimulation action reaches maximum (bell-shaped): about 100 nM
[5]; treated alone, FIG. 15
  serotonin release, substance alone vs non-treated group: did not show a remarkable difference
[5]; with nicotine (1 μM), FIG. 15
  effect on serotonin release caused by nicotine: remarkably enhanced
